The results in this text go back to BindingDB's records for doi:10.1016/j.bmcl.2013.09.026 (Friedrich-Alexander University, 2013).

SMILES strings stand for the structures.

For the assay, the target named is Alpha-1 adrenergic receptor (Sus scrofa). As to the kind of experiment: Displacement of [3H]-prazosin from alpha1-adrenergic receptor in pig cerebral cortex.

`COc1ccccc1N1CCN(Cc2cn(CCCCCCF)nn2)CC1` yielded an inhibition constant Ki of 110 nM.

`COc1ccccc1N1CCN(Cc2cn(CCOCCOCCF)nn2)CC1` returned a Ki of 490 nM.
